Assay results taken from article PMC7413516, “Antidepressant-like activity and safety profile evaluation of 1H-imidazo[2,1-f]purine-2,4(3H,8H)-dione derivatives as 5-HT1A receptor partial agonists” (PLoS ONE, 2020).
Values joined by “and” are separate entries in the source; they are usually repeats but may differ in a detail not shown here. Equal entries are not always repeated.

Tests used:
[1] = test system: adrenergic α1 receptors (α1R); assay: Pressor response to methoxamine in anesthetized normotensive rats (adrenolytic activity); type: in vivo, Wistar rats; conditions: 10 mg/kg
Method: In a separate series of experiments on anesthetized normotensive rats, the effect of studied compounds on the pressor response to methoxamine (Sigma Aldrich) (150 μg/kg) was investigated. Pressor responses to methoxamine injected intravenously were measured before and 30 min after the administration of the tested compound. The amplitudes of the pressure values were measured in 4 independent experiments.

[2] = target: T1, human 5-HT1AR (Homo sapiens, UniProt P08908); assay: β-Arrestin recruitment (Tango LiveBLAzer, HTR1A-bla U2OS cells)
T1 sequence (P08908 1-422): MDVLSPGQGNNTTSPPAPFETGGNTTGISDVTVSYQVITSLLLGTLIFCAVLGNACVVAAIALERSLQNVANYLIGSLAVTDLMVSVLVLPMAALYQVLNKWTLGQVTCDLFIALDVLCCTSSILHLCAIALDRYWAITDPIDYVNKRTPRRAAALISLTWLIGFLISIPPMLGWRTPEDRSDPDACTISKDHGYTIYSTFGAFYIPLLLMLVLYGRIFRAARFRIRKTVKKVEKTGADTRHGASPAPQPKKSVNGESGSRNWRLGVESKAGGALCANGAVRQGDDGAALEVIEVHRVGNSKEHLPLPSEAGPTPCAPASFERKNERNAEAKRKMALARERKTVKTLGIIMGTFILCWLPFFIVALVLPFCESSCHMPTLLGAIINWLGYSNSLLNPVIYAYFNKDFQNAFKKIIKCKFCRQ
Method: Cells were cultured according to manufacturer’s instruction. […] This parental cell line stably expresses a beta-arrestin/TEV protease fusion protein and the beta-lactamase reporter gene under the control of a UAS response element. The Tango™ HTR1A-bla U2OS cells have been functionally validated for a response to 5-CT. This cell line tested negative for mycoplasma.
The HTR1A-bla U2OS receptor cells containing the human 5-HT1AR linked to a TEV protease site and a Gal4-VP16 transcription factor were tested for recruitment of β-arrestin. […] The recruitment of β-arrestin were tested using the Tango LiveBLAzer assay kit according to the manufacturer’s instruction (Life Technologies). The assay plate was measured in FLUOstar Optima, a multifunction plate reader (BMG Lab Tech).

[3] = test system: mice; assay: Forced swim test (FST) in mice; type: in vivo, Swiss albino mice
From the text: The investigated compounds AZ-853 (8-(4-(4-(2-fluorophenyl)piperazin-1-yl)butyl)-1,3-dimethyl-1H-imidazo[2,1-f]purine-2,4(3H,8H)-dione and AZ-861 (1,3-dimethyl-8-(4-(4-(3-(trifluoromethyl)phenyl)piperazin-1-yl)butyl)-1H-imidazo[2,1-f]purine-2,4(3H,8H)-dione) were synthesised in the Department of Medicinal Chemistry, Faculty of Pharmacy, Jagiellonian University, and their synthesis was described earlier. AZ-853 and AZ-861 were suspended in 1% aqueous solution of Tween 80, and WAY-100635 (Sigma, Germany) was dissolved in 0.9% saline. In acute experiments, the selected compounds AZ-853 (0.156–2.5 mg/kg) and AZ-861 (0.625–2.5 mg/kg) were injected i.p. once 60 min before tests, whereas WAY-100635 (0.3 mg/kg) was administered subcutaneously (s.c.) 45 min before the test. […] In chronic experiments, AZ-853 and AZ-861 were administered i.p. once a day (between 9:00 AM and 10:00 AM) for 16 consecutive days at the minimum active doses selected from FST experiment, i.e. 0.625 and 1.25 mg/kg, respectively. All compounds were administered to mice at a volume of 10 ml/kg and to rats at a volume of 2 ml/kg. The control groups received 1% aqueous solution of Tween 80.
The experiment was carried out according to the method of Porsolt et al.. Swiss albino mice were individually placed in a glass cylinder (25 cm high; 10 cm in diameter) containing 10 cm of water maintained at 23–25°C, and were left there for 6 min. The total duration of immobility was recorded during the last 4 min of a 6-min. A mouse was regarded as immobile when it remained floating on the water, making only small movements to keep its head above it.
The Swiss albino mice were used in the experiment. AZ-853 and AZ-861 were injected once daily for 16 consecutive days. On the 1st and 15th day the administration of the compounds, 18-h spontaneous animal activity was registered (see below). FST, as described earlier, was performed on the 14th day just before the next treatment. To ensure that the effects observed in FST are not the result of increased motility of animals, on the 13th day, just before the next administration, the locomotor activity was measured as described earlier, from 2 to 6 min after test start, i.e. in the period identical to the duration of FST. Blood and organ collection was performed on the 17th day at 24 h after the last dose and fasting.

[4] = target: serotonergic 5-HT7 receptor (5-HT7R); parameters: method as in PMID 27353547; conditions: ref [8]; cited from earlier work
[5] = test system: normotensive rats; assay: Blood pressure measurement in normotensive anesthetized rats; type: in vivo, Wistar rats; conditions: for DBP Mean / SBP Mean: group mean; for DBP / SBP: individual rat
Method: Male Wistar normotensive rats were anesthetized with thiopental (50–75 mg/kg, i.p.). The right carotid artery was cannulated with a polyethylene tube filled with heparin in saline to facilitate pressure measurement using the Datamax apparatus (Columbus Instruments, Columbus, Ohio, USA). The studied compounds were administered after a 15-min stabilization period.

Compound: Cn1c(=O)c2c(nc3n(CCCCN4CCN(c5cccc(C(F)(F)F)c5)CC4)ccn23)n(C)c1=O [AZ-861, 1,3-dimethyl-8-(4-(4-(3-(trifluoromethyl)phenyl)piperazin-1-yl)butyl)-1H-imidazo[2,1-f]purine-2,4(3H,8H)-dione]
- reversal of the effect of methoxamine [1]: approximately 40%
- mean reduction of blood pressure vs. methoxamine alone ([1]; 30 min prior to methoxamine 150 μg/kg): 40.45 mmHg
- EC50 [2]: 0.372 nM
- Emax ([2]; U2OS, read-out: Emax (%) ± SEM, agonist mode): 95 ± 1.7%
- increased potency as compared to 5-HT ([2]; β-arrestin recruitment): 1000 fold
- reduction of immobility time in FST ([3]; acute, 1.25 mg/kg i.p., 60 min before test): approximately 33%
- effect of WAY-100635 on the antidepressant-like action of the compound in FST ([3]; compound 1.25 mg/kg i.p. + WAY-100635 0.3 mg/kg s.c.): attenuation of the anti-immobility effect
- effect on immobility time in FST after repeated administration ([3]; i.p. once daily for 13 consecutive days, AZ-853 0.625 mg/kg, AZ-861 1.25 mg/kg): decreased the immobility time
- Ki [4]: 136 nM
- effect on arterial pressure ([5]; 10 mg/kg): did not significantly affect the arterial pressure
- DBP Mean ([5]; time 0 min): 86.8 mmHg
- SBP Mean ([5]; time 0 min): 124.2 mmHg
- DBP ([5]; time 0 min): 74 mmHg and 91 mmHg and 79 mmHg and 94 mmHg and 89 mmHg
- SBP ([5]; time 0 min): 113 mmHg and 124 mmHg and 105 mmHg and 134 mmHg and 135 mmHg
- DBP Mean ([5]; time 5 min): 87.2 mmHg
- SBP Mean ([5]; time 5 min): 122.2 mmHg
- DBP ([5]; time 5 min): 91 mmHg and 76 mmHg and 84 mmHg and 93 mmHg and 98 mmHg and 81 mmHg
- SBP ([5]; time 5 min): 122 mmHg and 101 mmHg and 119 mmHg and 139 mmHg and 138 mmHg and 114 mmHg
- DBP Mean ([5]; time 10 min): 86.8 mmHg
- SBP Mean ([5]; time 10 min): 122.3 mmHg
- DBP ([5]; time 10 min): 90 mmHg and 76 mmHg and 87 mmHg and 98 mmHg and 80 mmHg
- SBP ([5]; time 10 min): 120 mmHg and 102 mmHg and 124 mmHg and 139 mmHg and 136 mmHg and 113 mmHg
- DBP Mean ([5]; time 15 min): 86.2 mmHg
- SBP Mean ([5]; time 15 min): 123.3 mmHg
- DBP ([5]; time 15 min): 90 mmHg and 77 mmHg and 89 mmHg and 94 mmHg
- SBP ([5]; time 15 min): 120 mmHg and 103 mmHg and 137 mmHg and 138 mmHg and 131 mmHg and 111 mmHg
- DBP Mean ([5]; time 20 min): 85.8 mmHg
- SBP Mean ([5]; time 20 min): 121.8 mmHg
- DBP ([5]; time 20 min): 89 mmHg and 76 mmHg and 91 mmHg and 87 mmHg and 94 mmHg
- SBP ([5]; time 20 min): 118 mmHg and 100 mmHg and 138 mmHg and 139 mmHg and 128 mmHg and 109 mmHg
- DBP Mean ([5]; time 30 min): 86.5 mmHg
- SBP Mean ([5]; time 30 min): 124.2 mmHg
- DBP ([5]; time 30 min): 88 mmHg and 77 mmHg and 93 mmHg and 89 mmHg and 94 mmHg and 74 mmHg
- SBP ([5]; time 30 min): 119 mmHg and 101 mmHg and 136 mmHg and 139 mmHg and 128 mmHg and 108 mmHg
- DBP Mean ([5]; time 40 min): 85.5 mmHg
- SBP Mean ([5]; time 40 min): 122.0 mmHg
- DBP ([5]; time 40 min): 88 mmHg and 76 mmHg and 92 mmHg and 95 mmHg and 75 mmHg
- SBP ([5]; time 40 min): 122 mmHg and 106 mmHg and 134 mmHg and 136 mmHg and 128 mmHg and 108 mmHg
- DBP Mean ([5]; time 50 min): 85.7 mmHg
- SBP Mean ([5]; time 50 min): 122.3 mmHg
- DBP ([5]; time 50 min): 96 mmHg and 81 mmHg and 89 mmHg and 84 mmHg and 93 mmHg and 77 mmHg
- SBP ([5]; time 50 min): 134 mmHg and 110 mmHg and 130 mmHg and 135 mmHg and 125 mmHg
- DBP Mean ([5]; time 60 min): 86.7 mmHg
- SBP Mean ([5]; time 60 min): 124.0 mmHg
- DBP ([5]; time 60 min): 98 mmHg and 83 mmHg and 88 mmHg and 82 mmHg and 93 mmHg and 75 mmHg
- SBP ([5]; time 60 min): 135 mmHg and 112 mmHg and 129 mmHg and 126 mmHg and 108 mmHg
- DBP Mean ([5]; time 70 min): 86.3 mmHg
- SBP Mean ([5]; time 70 min): 123.7 mmHg
- DBP ([5]; time 70 min): 96 mmHg and 86 mmHg and 80 mmHg and 93 mmHg and 77 mmHg
- SBP ([5]; time 70 min): 134 mmHg and 115 mmHg and 127 mmHg and 128 mmHg and 125 mmHg and 113 mmHg
- DBP Mean ([5]; time 80 min): 86.8 mmHg
- SBP Mean ([5]; time 80 min): 124.5 mmHg
- DBP ([5]; time 80 min): 97 mmHg and 87 mmHg and 86 mmHg and 82 mmHg and 93 mmHg and 76 mmHg
- SBP ([5]; time 80 min): 134 mmHg and 115 mmHg and 126 mmHg and 131 mmHg and 125 mmHg and 116 mmHg
